Common to all, as to test: relative viability (nuclei count vs DMSO), 5 days (fraction); higher = more cells survive
Compound in the assay “Cediranib + Navitoclax”: COc1cc2c(Oc3ccc4[nH]c(C)cc4c3F)ncnc2cc1OCCCN1CCCC1 [Cediranib] + CC1(C)CCC(c2ccc(Cl)cc2)=C(CN2CCN(c3ccc(C(=O)NS(=O)(=O)c4ccc(N[C@H](CCN5CCOCC5)CSc5ccccc5)c(S(=O)(=O)C(F)(F)F)c4)cc3)CC2)C1 [Navitoclax] (partner 0.5 µM)
Summed up: (§1)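 For relative viability, nuclei counts in treated wells were divided by those in vehicle wells. Lung cancer cell lines had been pin-tool dosed in 1536-well plates the day after seeding and cultured for 5 days, then fixed and stained in one step (final 0.05% Triton X-100, 1% formaldehyde, 1 ug/ml Hoechst) and imaged at 4×. Doses were one drug alone or a fixed anchor-drug dose plus five library-drug doses (not always all listed) in √10 steps, and values are duplicate-plate medians.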

Compound in the assay “Decitabine + Pemetrexed”: Nc1ncn([C@H]2C[C@H](O)[C@@H](CO)O2)c(=O)n1 [Decitabine] + Nc1nc2[nH]cc(CCc3ccc(C(=O)N[C@@H](CCC(=O)O)C(=O)O)cc3)c2c(=O)[nH]1 [Pemetrexed] (partner 0.2 µM)
In a few lines:
as §1

Compound in the assay “Decitabine + Alpelisib”: Nc1ncn([C@H]2C[C@H](O)[C@@H](CO)O2)c(=O)n1 [Decitabine] + Cc1nc(NC(=O)N2CCC[C@H]2C(N)=O)sc1-c1ccnc(C(C)(C)C(F)(F)F)c1 [Alpelisib] (partner 2 µM)
Summed up: as §1

Compound in the assay “Cediranib + OSI-027”: COc1cc2c(Oc3ccc4[nH]c(C)cc4c3F)ncnc2cc1OCCCN1CCCC1 [Cediranib] + COc1cccc2cc(-c3nc([C@H]4CC[C@H](C(=O)O)CC4)n4ncnc(N)c34)[nH]c12 [OSI-027] (partner 0.5 µM)
In a few lines:
as §1

Take 201T: the relative viability with Cediranib + Navitoclax (first compound 0.04 µM) is 1.25; in the assay with Cediranib + Navitoclax (first compound 0.1265 µM) it was 1.28; with Cediranib + Navitoclax (first compound 0.4 µM), 1.15; with Cediranib + Navitoclax (first compound 1.265 µM) it was 1.2; with Cediranib + Navitoclax (first compound 4 µM), 1.21; in the assay with Decitabine + Pemetrexed (first compound 0.04 µM), 0.297. Also, the relative viability in the assay with Decitabine + Pemetrexed (first compound 0.1265 µM) turned out to be 0.286; in the assay with Decitabine + Pemetrexed (first compound 0.4 µM) it was 0.227; with Decitabine + Pemetrexed (first compound 4 µM), 0.254; with Decitabine + Alpelisib (first compound 0.04 µM), 1; in the assay with Decitabine + Alpelisib (first compound 0.1265 µM), 1.08; with Decitabine + Alpelisib (first compound 0.4 µM), 1.12. The relative viability with Decitabine + Alpelisib (first compound 1.265 µM) is 0.949; with Decitabine + Alpelisib (first compound 4 µM), 0.923; with Cediranib + OSI-027 (first compound 0.04 µM), 0.945; with Cediranib + OSI-027 (first compound 0.1265 µM), 0.841; in the assay with Cediranib + OSI-027 (first compound 0.4 µM), 0.671; in the assay with Cediranib + OSI-027 (first compound 1.265 µM), 0.717. Besides, the relative viability with Cediranib + OSI-027 (first compound 4 µM) came out at 0.692.
In the case of A549, the relative viability with Cediranib + Navitoclax (first compound 0.04 µM) turned out to be 1.29; in the assay with Cediranib + Navitoclax (first compound 0.1265 µM), 1.34; with Cediranib + Navitoclax (first compound 0.4 µM), 1.23; in the assay with Cediranib + Navitoclax (first compound 1.265 µM), 1.25; with Cediranib + Navitoclax (first compound 4 µM), 1.24; with Decitabine + Alpelisib (first compound 0.04 µM) it was 0.647. The relative viability with Decitabine + Alpelisib (first compound 0.1265 µM) was determined as 0.56; in the assay with Decitabine + Alpelisib (first compound 0.4 µM), 0.494; with Decitabine + Alpelisib (first compound 1.265 µM), 0.214; in the assay with Decitabine + Alpelisib (first compound 4 µM), 0.165.
As to A-427, the relative viability with Cediranib + Navitoclax (first compound 0.04 µM) was 0.903; in the assay with Cediranib + Navitoclax (first compound 0.4 µM), 0.909; with Cediranib + Navitoclax (first compound 1.265 µM) it was 0.875; with Cediranib + Navitoclax (first compound 4 µM), 0.94; with Decitabine + Pemetrexed (first compound 0.04 µM) it was 0.847; in the assay with Decitabine + Pemetrexed (first compound 0.1265 µM), 0.779. Further, the relative viability was 0.466 with Decitabine + Pemetrexed (first compound 0.4 µM); 0.474 in the assay with Decitabine + Pemetrexed (first compound 1.265 µM); 0.474 in the assay with Decitabine + Pemetrexed (first compound 4 µM); 0.695 with Decitabine + Alpelisib (first compound 0.04 µM); 0.462 in the assay with Decitabine + Alpelisib (first compound 0.1265 µM); 0.303 with Decitabine + Alpelisib (first compound 0.4 µM). For the same cell line, the relative viability with Decitabine + Alpelisib (first compound 1.265 µM) was found to be 0.265; in the assay with Decitabine + Alpelisib (first compound 4 µM), 0.232; in the assay with Cediranib + OSI-027 (first compound 0.04 µM) it was 0.515; with Cediranib + OSI-027 (first compound 0.4 µM), 0.339; in the assay with Cediranib + OSI-027 (first compound 1.265 µM), 0.361; in the assay with Cediranib + OSI-027 (first compound 4 µM), 0.405.
For ABC-1, the relative viability was 0.833 with Decitabine + Alpelisib (first compound 0.04 µM); 0.816 in the assay with Decitabine + Alpelisib (first compound 0.1265 µM); 0.786 with Decitabine + Alpelisib (first compound 0.4 µM); 0.731 with Decitabine + Alpelisib (first compound 1.265 µM); 0.753 with Decitabine + Alpelisib (first compound 4 µM); 0.447 with Cediranib + OSI-027 (first compound 0.04 µM). In addition, the relative viability with Cediranib + OSI-027 (first compound 0.1265 µM) turned out to be 0.651; with Cediranib + OSI-027 (first compound 0.4 µM) it was 0.532; with Cediranib + OSI-027 (first compound 4 µM) it was 0.437.
As for BEN, the relative viability with Cediranib + Navitoclax (first compound 0.04 µM) came out at 0.0686; with Cediranib + Navitoclax (first compound 0.1265 µM), 0.0663; with Cediranib + Navitoclax (first compound 0.4 µM) it was 0.0683; with Cediranib + Navitoclax (first compound 1.265 µM), 0.0702; with Cediranib + Navitoclax (first compound 4 µM), 0.0649; with Decitabine + Pemetrexed (first compound 0.04 µM) it was 0.775. Also, the relative viability with Decitabine + Pemetrexed (first compound 0.1265 µM) was 0.757; in the assay with Decitabine + Pemetrexed (first compound 0.4 µM), 0.632; with Decitabine + Pemetrexed (first compound 1.265 µM), 0.663; in the assay with Decitabine + Pemetrexed (first compound 4 µM) it was 0.553; with Decitabine + Alpelisib (first compound 0.04 µM) it was 0.943; with Decitabine + Alpelisib (first compound 0.1265 µM) it was 0.908. Further, the relative viability with Decitabine + Alpelisib (first compound 0.4 µM) is 0.651; with Decitabine + Alpelisib (first compound 1.265 µM) it was 0.564; with Decitabine + Alpelisib (first compound 4 µM), 0.426; with Cediranib + OSI-027 (first compound 0.04 µM), 0.308; with Cediranib + OSI-027 (first compound 0.4 µM), 0.28; with Cediranib + OSI-027 (first compound 1.265 µM), 0.311. In the assay with Cediranib + OSI-027 (first compound 4 µM), the relative viability turned out to be 0.286.
CAL-12T: the relative viability in the assay with Cediranib + Navitoclax (first compound 0.04 µM) is 1.33; with Cediranib + Navitoclax (first compound 0.1265 µM) it was 1.33; with Cediranib + Navitoclax (first compound 0.4 µM), 1.37; with Cediranib + Navitoclax (first compound 1.265 µM), 1.27; with Cediranib + Navitoclax (first compound 4 µM) it was 1.34; with Decitabine + Pemetrexed (first compound 0.04 µM) it was 1.07. For the same cell line, the relative viability with Decitabine + Pemetrexed (first compound 0.1265 µM) is 1.04; with Decitabine + Pemetrexed (first compound 0.4 µM), 0.599; with Decitabine + Pemetrexed (first compound 1.265 µM) it was 0.609; with Decitabine + Pemetrexed (first compound 4 µM), 0.36; in the assay with Decitabine + Alpelisib (first compound 0.04 µM) it was 0.686; in the assay with Decitabine + Alpelisib (first compound 0.1265 µM), 0.997. Moreover, the relative viability stood at 0.793 in the assay with Decitabine + Alpelisib (first compound 0.4 µM); 0.514 in the assay with Decitabine + Alpelisib (first compound 1.265 µM); 0.34 in the assay with Decitabine + Alpelisib (first compound 4 µM); 0.814 with Cediranib + OSI-027 (first compound 0.04 µM); 0.568 with Cediranib + OSI-027 (first compound 0.1265 µM); 0.624 with Cediranib + OSI-027 (first compound 0.4 µM). The relative viability amounted to 0.416 with Cediranib + OSI-027 (first compound 1.265 µM) and 0.992 with Cediranib + OSI-027 (first compound 4 µM).
Regarding COR-L23, the relative viability in the assay with Cediranib + Navitoclax (first compound 0.04 µM) stood at 0.966; in the assay with Cediranib + Navitoclax (first compound 0.1265 µM), 1.14; in the assay with Cediranib + Navitoclax (first compound 0.4 µM), 0.893; with Cediranib + Navitoclax (first compound 1.265 µM), 0.922; with Cediranib + Navitoclax (first compound 4 µM), 1.03; with Decitabine + Pemetrexed (first compound 0.04 µM) it was 0.198. Further, the relative viability amounted to 0.207 with Decitabine + Pemetrexed (first compound 0.1265 µM); 0.18 in the assay with Decitabine + Pemetrexed (first compound 0.4 µM); 0.178 in the assay with Decitabine + Pemetrexed (first compound 1.265 µM); 0.196 with Decitabine + Pemetrexed (first compound 4 µM); 0.412 in the assay with Decitabine + Alpelisib (first compound 0.04 µM); 0.346 with Decitabine + Alpelisib (first compound 0.1265 µM). Besides, the relative viability is 0.311 in the assay with Decitabine + Alpelisib (first compound 0.4 µM); 0.225 in the assay with Decitabine + Alpelisib (first compound 1.265 µM); 0.213 with Decitabine + Alpelisib (first compound 4 µM); 0.913 in the assay with Cediranib + OSI-027 (first compound 0.04 µM); 0.767 with Cediranib + OSI-027 (first compound 0.1265 µM); 0.738 with Cediranib + OSI-027 (first compound 0.4 µM). The figures for the relative viability with Cediranib + OSI-027 (first compound 1.265 µM) and in the assay with Cediranib + OSI-027 (first compound 4 µM) were 0.675 and 0.872, respectively.
As to COR-L 105, the relative viability with Cediranib + Navitoclax (first compound 0.1265 µM) turned out to be 0.842; with Cediranib + Navitoclax (first compound 0.4 µM), 0.733; with Cediranib + Navitoclax (first compound 1.265 µM), 0.756; with Cediranib + Navitoclax (first compound 4 µM), 0.693; in the assay with Decitabine + Pemetrexed (first compound 0.04 µM), 1.01; with Decitabine + Pemetrexed (first compound 0.1265 µM), 1.08. Also, the relative viability in the assay with Decitabine + Pemetrexed (first compound 0.4 µM) is 0.882; in the assay with Decitabine + Pemetrexed (first compound 1.265 µM), 0.698; with Decitabine + Pemetrexed (first compound 4 µM) it was 0.668; in the assay with Decitabine + Alpelisib (first compound 0.04 µM) it was 0.763; with Decitabine + Alpelisib (first compound 0.1265 µM), 0.873; in the assay with Decitabine + Alpelisib (first compound 0.4 µM) it was 0.717. For the same cell line, the relative viability turned out to be 0.427 with Decitabine + Alpelisib (first compound 1.265 µM); 0.306 with Decitabine + Alpelisib (first compound 4 µM); 0.6 in the assay with Cediranib + OSI-027 (first compound 0.04 µM); 0.904 with Cediranib + OSI-027 (first compound 0.1265 µM); 0.553 with Cediranib + OSI-027 (first compound 0.4 µM); 0.552 in the assay with Cediranib + OSI-027 (first compound 1.265 µM). Besides, in the assay with Cediranib + OSI-027 (first compound 4 µM), the relative viability was found to be 0.601.

The values are drawn from the supplement of paper PMC10307832.
